Measurements as given in US10294202B2, “Pyrrolidinones as herbicides” (FMC Corporation, priority 2013, dated 2019).

Key:
[1] = system: field poppy; assay: Test D pre-/postemergence herbicide test; type: in vivo, Papaver rhoeas; conditions: Preemergence; for Plant response rating, Field Poppy: scale 0 to 100 (0 no effect, 100 complete control); for Plant response rating: 250 g ai/ha, Field Poppy, scale 0 to 100
Text: (§1) Seeds of plant species selected from bluegrass (annual bluegrass, Poa annua), blackgrass (Alopecurus myosuroides), canarygrass (littleseed canarygrass, Phalaris minor), chickweed (common chickweed, Stellaria media), galium (catchweed bedstraw, Galium aparine), bromegrass, downy (downy bromegrass, Bromus tectorum), field poppy (Papaver rhoeas), field violet (Viola arvensis), foxtail, green (green foxtail, Setaria viridis), deadnettle (henbit deadnettle, Lamium amplexicaule), ryegrass, Italian (Italian ryegrass, Lolium multiflorum), kochia (Kochia scoparia), lambsquarters (Chenopodium album), oilseed rape (Brassica napus), pigweed (Amaranthus retroflexus), chamomile (scentless chamomile, Matricaria inodora), Russian thistle (Salsola kali), speedwell (bird's-eye speedwell, Veronica persica), barley, spring (spring barley, Hordeum vulgare), wheat, spring (spring wheat, Triticum aestivum), buckwheat, wild (wild buckwheat, Polygonum convolvulus), mustard, wild (wild mustard, Sinapis arvensis), oat, wild (wild oat, Avena fatua), radish, wild (wild radish, Raphanus raphanistrum), […]), barley, winter (winter barley, Hordeum vulgare), and wheat, winter (winter wheat, Triticum aestivum) were planted into a silt loam soil and treated preemergence with test chemicals formulated in a non-phytotoxic solvent mixture which included a surfactant. At the same time, these species were planted in pots containing Redi-Earth® planting medium (Scotts Company, 14111 Scottslawn Road, Marysville, Ohio 43041) comprising spaghnum peat moss, vermiculite, wetting agent and starter nutrients and treated with postemergence applications of the test chemicals formulated in the same manner. Plants ranged in height from 2 to 18 cm (1- to 4-leaf stage). Treated plants and controls were maintained in a controlled growth environment for 7 to 21 days after which time all species were compared to controls and visually evaluated. Plant response ratings, summarized in Table D, are based on a scale of 0 to 100 where 0 is no effect and 100 is complete control. A dash (-) response means no test result.

[2] = system: galium; assay: Test D pre-/postemergence herbicide test; type: in vivo, Galium aparine; conditions: Preemergence; for Plant response rating, Galium: scale 0 to 100 (0 no effect, 100 complete control); for Plant response rating: 250 g ai/ha, Galium, scale 0 to 100
Text: as §1

[3] = system: sandbur; assay: Test E preemergence herbicide test; type: in vivo, Cenchrus echinatus; design: key: 0 = no effect, 100 = complete control
Text: (§2) Seeds of plant species selected from corn (Zea mays), soybean (Glycine max), velvetleaf (Abutilon theophrasti), lambsquarters (Chenopodium album), wild poinsettia (Euphorbia heterophylla), pigweed, palmer (palmer pigweed, Amaranthus palmeri), waterhemp (common waterhemp, Amaranthus rudis), surinam grass (Brachiaria decumbens), crabgrass, large (large crabgrass, Digitaria sanguinalis), crabgrass, Brazil (Brazilian crabgrass, Digitaria horizontalis), panicum, fall (fall panicum, Panicum dichotomiflorum), foxtail, giant (giant foxtail, Setaria faberii), foxtail, green (green foxtail, Setaria viridis), goosegrass (Eleusine indica), johnsongrass (Sorghum halepense), ragweed (common ragweed, Ambrosia elatior), barnyardgrass (Echinochloa crus-galli), sandbur (southern sandbur, Cenchrus echinatus), arrowleaf […] rhombifolia), ryegrass, Italian (Italian ryegrass, Lolium multiflorum), dayflower, VA (Virginia dayflower, Commelina virginica), field bindweed (Convolvulus arvensis), morningglory (Ipomoea coccinea), nightshade (eastern black nightshade, Solanum ptycanthum), kochia (Kochia scoparia), nutsedge, yellow (yellow nutsedge, Cyperus esculentus), cocklebur (common cocklebur, Xanthium strumarium), smartweed (ladysthumb smartweed, Polygonum Persicaria) and beggarticks (hairy beggarticks, Bidens pilosa), were planted into a silt loam soil and treated preemergence with test chemicals formulated in a non-phytotoxic solvent mixture which included a surfactant. Treated plants and controls were maintained in a greenhouse for 21 days, after which time all species were compared to controls and visually evaluated. Plant response ratings, summarized in Table E, are based on a scale of 0 to 100 where 0 is no effect and 100 is complete control. A dash (-) response means no test result.

[4] = system: wild poinsettia; assay: Test E preemergence herbicide test; type: in vivo, Euphorbia heterophylla; design: key: 0 = no effect, 100 = complete control
Text: as §2

[5] = system: kochia; assay: Test E preemergence herbicide test; type: in vivo, Kochia scoparia; design: key: 0 = no effect, 100 = complete control
Text: as §2

[6] = system: ryegrass, Italian; assay: Test E preemergence herbicide test; type: in vivo, Lolium multiflorum; design: key: 0 = no effect, 100 = complete control
Text: as §2

[7] = system: goosegrass; assay: Test E preemergence herbicide test; type: in vivo, Eleusine indica; design: key: 0 = no effect, 100 = complete control
Text: as §2

[8] = system: arrowleaf sida; assay: Test E preemergence herbicide test; type: in vivo, Sida rhombifolia; design: key: 0 = no effect, 100 = complete control
Text: as §2

Compound | Plant response rating, Field Poppy ([1]; 31 g ai/ha) | Plant response rating, Field Poppy ([1]; 62 g ai/ha) | Plant response rating, Field Poppy ([1]; 125 g ai/ha) | Plant response rating [1] | Plant response rating, Galium ([2]; 31 g ai/ha) | Plant response rating, Galium ([2]; 62 g ai/ha) | Plant response rating, Galium ([2]; 125 g ai/ha) | Plant response rating [2] | Plant response rating, Sandbur ([3]; 31 g ai/ha) | Plant response rating, Sandbur ([3]; 62 g ai/ha) | Plant response rating, Sandbur ([3]; 125 g ai/ha) | Plant response rating, Sandbur ([3]; 250 g ai/ha) | Plant response rating, Poinsettia, Wild ([4]; 31 g ai/ha) | Plant response rating, Poinsettia, Wild ([4]; 62 g ai/ha) | Plant response rating, Poinsettia, Wild ([4]; 125 g ai/ha) | Plant response rating, Poinsettia, Wild ([4]; 250 g ai/ha) | Plant response rating, Kochia ([5]; 31 g ai/ha) | Plant response rating, Kochia ([5]; 62 g ai/ha) | Plant response rating, Kochia ([5]; 125 g ai/ha) | Plant response rating, Kochia ([5]; 250 g ai/ha) | further results
O=C1NCC(c2cccc(C(F)(F)F)c2)C1C(=O)Nc1ccc(F)cc1F (racemic) [Compound 207] | 55 | 75 | 80 | 100 | 55 | 60 | 45 | 20 | – | – | – | – | – | – | – | – | – | – | – | – | –
O=C1NCC(c2cccc(Br)c2)C1C(=O)Nc1ccccc1F (stereo not shown) [Compound 66] | – | – | – | – | – | – | – | – | 0 | 0 | 0 | 35 | 0 | 0 | 0 | 20 | 0 | 0 | 0 | 0 | Plant response rating, Sandbur ([3]; 16 g ai/ha): 0; Plant response rating, Poinsettia, Wild ([4]; 16 g ai/ha): 0; Plant response rating, Kochia ([5]; 16 g ai/ha): 0; Plant response rating, Ryegrass, Italian ([6]; 16 g ai/ha): 0; Plant response rating, Ryegrass, Italian ([6]; 31 g ai/ha): 0; Plant response rating, Ryegrass, Italian ([6]; 62 g ai/ha): 0; Plant response rating, Ryegrass, Italian ([6]; 125 g ai/ha): 0; Plant response rating, Ryegrass, Italian ([6]; 250 g ai/ha): 0; Plant response rating, Goosegrass ([7]; 16 g ai/ha): 0; Plant response rating, Goosegrass ([7]; 31 g ai/ha): 0; Plant response rating, Goosegrass ([7]; 62 g ai/ha): 0; Plant response rating, Goosegrass ([7]; 125 g ai/ha): 0; Plant response rating, Goosegrass ([7]; 250 g ai/ha): 0; Plant response rating, Arrowleaf Sida ([8]; 16 g ai/ha): 0; Plant response rating, Arrowleaf Sida ([8]; 31 g ai/ha): 0; Plant response rating, Arrowleaf Sida ([8]; 62 g ai/ha): 0; Plant response rating, Arrowleaf Sida ([8]; 125 g ai/ha): 0; Plant response rating, Arrowleaf Sida ([8]; 250 g ai/ha): 0
O=C1NCC(c2ccc(C(F)(F)F)cc2)C1C(=O)Nc1ccc(F)c(F)c1F (stereo not shown) [Compound 232] | – | – | – | – | – | – | – | – | 35 | 65 | 90 | 90 | 0 | 0 | 35 | 40 | 90 | 95 | 98 | 98 | Plant response rating, Ryegrass, Italian ([6]; 31 g ai/ha): 0; Plant response rating, Ryegrass, Italian ([6]; 62 g ai/ha): 10; Plant response rating, Ryegrass, Italian ([6]; 125 g ai/ha): 20; Plant response rating, Ryegrass, Italian ([6]; 250 g ai/ha): 40; Plant response rating, Goosegrass ([7]; 31 g ai/ha): 35; Plant response rating, Goosegrass ([7]; 62 g ai/ha): 80; Plant response rating, Goosegrass ([7]; 125 g ai/ha): 85; Plant response rating, Goosegrass ([7]; 250 g ai/ha): 95; Plant response rating, Arrowleaf Sida ([8]; 31 g ai/ha): 0; Plant response rating, Arrowleaf Sida ([8]; 62 g ai/ha): 20; Plant response rating, Arrowleaf Sida ([8]; 125 g ai/ha): 65; Plant response rating, Arrowleaf Sida ([8]; 250 g ai/ha): 90
O=C1NCC(c2cccc(C(F)(F)F)c2)C1C(=O)Nc1cccc(F)c1F (stereo not shown) [Compound 241] | 90 | 95 | 95 | 100 | 20 | 25 | 35 | 80 | – | – | – | – | – | – | – | – | – | – | – | – | –
